Assay results published in ChEMBL document CHEMBL5154798, “Structure-based discovery of receptor tyrosine kinase AXL degraders with excellent anti-tumor activity by selectively degrading AXL and inducing methuosis” (Eur J Med Chem, 2022).
Activity calls are given as the source filed them. The calls are words filed in the database; no cut-off is given here.

Key:
[1] = Systemic toxicity in female BALB/c nude mouse xenografted with human MDA-MB-231 cells assessed as inflammatory cell infiltration in heart at 25 mg/kg, ip; assay type: organism-based; conditions: in vivo
[2] = AUC (0 to t) in male Sprague-Dawley rat at 2 mg/kg, iv administered as single dose measured by LC/MS/MS analysis; assay type: ADME, organism-based; design: dose 2 mg/kg, route iv; conditions: in vivo
[3] = Systemic toxicity in female BALB/c nude mouse xenografted with human MDA-MB-231 cells assessed as inflammatory cell infiltration in lung at 25 mg/kg, ip; assay type: organism-based; conditions: in vivo
[4] = Cytotoxicity against human MCF-10A cells after 72 hrs by MTT assay; assay type: toxicity, cell-based
[5] = Tmax in male Sprague-Dawley rat at 2 mg/kg, iv administered as single dose measured by LC/MS/MS analysis; assay type: ADME, organism-based; conditions: in vivo
[6] = system: Mus musculus; test: In vivo induction of CRBN-mediated AXL degradation in mouse measured after 6 hrs; assay type: functional, organism-based
[7] = Systemic toxicity in female BALB/c nude mouse xenografted with human MDA-MB-231 cells assessed as necrosis of heart tissue at 25 mg/kg, ip; assay type: organism-based; conditions: in vivo
[8] = system: MDA-MB-231; test: Induction of macropinocytosis in human MDA-MB-231 cells measured by MitoTracker staining based fluorescence microscopy; assay type: functional, cell-based
[9] = Systemic toxicity in female BALB/c nude mouse xenografted with human MDA-MB-231 cells assessed as inflammatory cell infiltration in liver at 25 mg/kg, ip; assay type: organism-based; conditions: in vivo
[10] = Systemic toxicity in female BALB/c nude mouse xenografted with human MDA-MB-231 cells assessed as necrosis of lung tissue at 25 mg/kg, ip; assay type: organism-based; conditions: in vivo
[11] = Oral bioavailability in male Sprague-Dawley rat at 20 mg/kg administered as single dose measured by LC/MS/MS analysis; assay type: ADME, organism-based; conditions: in vivo
[12] = Systemic toxicity in female BALB/c nude mouse xenografted with human MDA-MB-231 cells assessed as necrosis of liver tissue at 25 mg/kg, ip; assay type: organism-based; conditions: in vivo
[13] = Systemic toxicity in female BALB/c nude mouse xenografted with human MDA-MB-231 cells assessed as inflammatory cell infiltration in kidney at 25 mg/kg, ip; assay type: organism-based; conditions: in vivo
[14] = Cmax in male Sprague-Dawley rat at 20 mg/kg, po administered as single dose measured by LC/MS/MS analysis; assay type: ADME, organism-based; design: dose 20 mg/kg, route po; conditions: in vivo
[15] = system: MDA-MB-231; test: Induction of macropinocytosis in human MDA-MB-231 cells assessed as co-localization of Rab7 with lucifer yellow measured by immunofluorescence assay; assay type: functional, cell-based
[16] = system: MDA-MB-231; test: Induction of cytoplasmic vacuolation in human MDA-MB-231 cells at 0.5 uM; assay type: functional, cell-based
[17] = system: MDA-MB-231; test: Antiproliferative activity against human MDA-MB-231 cells highly expressing AXL after 72 hrs by MTT assay; conditions: MDA-MB-231, 72 h
[18] = Systemic toxicity in female BALB/c nude mouse xenografted with human MDA-MB-231 cells assessed as necrosis of kidney tissue at 25 mg/kg, ip; assay type: organism-based; conditions: in vivo
[19] = Toxicity in female BALB/c nude mouse xenografted with human MDA-MB-231 cells assessed as change in body wieght at 25 mg/kg, ip; assay type: organism-based; conditions: in vivo
[20] = system: 4T1; test: Induction of cytoplasmic vacuolation in mouse 4T1 cells at 0.5 uM; assay type: functional, cell-based
[21] = Systemic toxicity in female BALB/c nude mouse xenografted with human MDA-MB-231 cells assessed as necrosis of spleen tissue at 25 mg/kg, ip; assay type: organism-based; conditions: in vivo
[22] = Half-life in male Sprague-Dawley rat at 20 mg/kg, po administered as single dose measured by LC/MS/MS analysis; assay type: ADME, organism-based; conditions: in vivo
[23] = Cmax in male Sprague-Dawley rat at 2 mg/kg, iv administered as single dose measured by LC/MS/MS analysis; assay type: ADME, organism-based; design: dose 2 mg/kg, route iv; conditions: in vivo
[24] = Systemic toxicity in female BALB/c nude mouse xenografted with human MDA-MB-231 cells assessed as inflammatory cell infiltration in spleen at 25 mg/kg, ip; assay type: organism-based; conditions: in vivo
[25] = system: MDA-MB-231; test: Antitumor activity against human MDA-MB-231 cells xenografted in female BALB/c nude mouse assessed as tumor growth inhibition at 25 mg/kg, ip; assay type: functional, organism-based
[26] = Half-life in male Sprague-Dawley rat at 2 mg/kg, iv administered as single dose measured by LC/MS/MS analysis; assay type: ADME, organism-based; conditions: in vivo
[27] = system: 4T1; test: Antiproliferative activity against mouse 4T1 cells highly expressing AXL after 72 hrs by MTT assay; conditions: 4T1, 72 h
[28] = Clearance in male Sprague-Dawley rat at 2 mg/kg, iv administered as single dose measured by LC/MS/MS analysis; assay type: ADME, organism-based; conditions: in vivo
[29] = system: MDA-MB-231; test: Induction of macropinocytosis in human MDA-MB-231 cells measured by LysoTracker staining based fluorescence microscopy; assay type: functional, cell-based
[30] = Tmax in male Sprague-Dawley rat at 20 mg/kg, po administered as single dose measured by LC/MS/MS analysis; assay type: ADME, organism-based; conditions: in vivo
[31] = system: MDA-MB-231; test: Induction of macropinocytosis in human MDA-MB-231 cells assessed as co-localization of LAMP-1 with lucifer yellow measured by immunofluorescence assay; assay type: functional, cell-based
[32] = AUC (0 to t) in male Sprague-Dawley rat at 20 mg/kg, po administered as single dose measured by LC/MS/MS analysis; assay type: ADME, organism-based; design: dose 20 mg/kg, route po; conditions: in vivo
[33] = Cytotoxicity against human GES1 cells after 72 hrs by MTT assay; assay type: toxicity, cell-based
[34] = system: MDA-MB-231; test: Induction of cytoplasmic vacuolation in human MDA-MB-231 cells at 1 uM in presence of 1 uM pan-caspase inhibitor Z-VAD-FMK; assay type: functional, cell-based

SMILES	Activity [1]	AUCt [2] [ng·h/mL]	Activity [3]	IC50 at 72 h [4] [µM]	Tmax [5] [h]	Activity [6]	Activity [7]	Activity [8]	Activity [9]	Activity [10]	bioavailability [11] [%]	Activity [12]	Activity [13]	Cmax [14] [ng/mL]	Activity [15]	Activity [16]	IC50 [17] [µM]	Activity [18]	Activity [19]	Activity [20]	other results
Nc1nc(Nc2ccc(CNC(=O)CCCCCNc3cccc4c3CN(C3CCC(=O)NC3=O)C4=O)cc2)nn1-c1ccc(-c2ccccc2)nn1 (stereo not drawn)	Non-Toxic	7581.3	Non-Toxic	> 60	0.82	Active	Non-Toxic	Active	Non-Toxic	Non-Toxic	7.8	Non-Toxic	Non-Toxic	144	Active	Active	6.23	Non-Toxic	Non-Toxic	Active	Activity [21]: Non-Toxic; half-life [22]: 4.43 h; Cmax [23]: 279 ng/mL; Activity [24]: Non-Toxic; TGI [25]: Active; t1/2 [26]: 1.18 h; IC50 [27]: 2.06 µM; CL ([28]; iv, 2 mg/kg): 12 mL/min/kg; Activity [29]: Active; Tmax [30]: 2.25 h; Activity [31]: Active; AUC(0-t) [32]: 3590 ng·h/mL; IC50 at 72 h [33]: > 60 µM; Activity [34]: Active
Nc1nc(Nc2ccc(CNC(=O)CCCCCCCNc3cccc4c3CN(C3CCC(=O)NC3=O)C4=O)cc2)nn1-c1ccc(-c2ccccc2)nn1 (stereo not drawn)	Non-Toxic	2933.4	Non-Toxic	> 60	0.54	Active	Non-Toxic	Active	Non-Toxic	Non-Toxic	4.93	Non-Toxic	Non-Toxic	92	Active	Active	10.3	Non-Toxic	Non-Toxic	Active	Activity [21]: Non-Toxic; half-life [22]: 2.37 h; Cmax [23]: 166 ng/mL; Activity [24]: Non-Toxic; TGI [25]: Active; t1/2 [26]: 0.72 h; IC50 [27]: 5.53 µM; clearance ([28]; male, Sprague-Dawley): 11.3 mL/min/kg; Activity [29]: Active; Tmax [30]: 1.89 h; Activity [31]: Active; AUC(0-t) [32]: 865 ng·h/mL; IC50 at 72 h [33]: > 60 µM; Activity [34]: Active
